Values joined by “and” are separate entries in the source; they are usually repeats but may differ in a detail not shown here. Equal values may be shown once.
Target: T1, recombinant human AKR1C3 (aldo-keto reductase family 1 member C3) (Homo sapiens, UniProt P42330)
T1 construct: GST (cleaved yes); made in house; host or cells: E. coli
T1 sequence (P42330 1-323): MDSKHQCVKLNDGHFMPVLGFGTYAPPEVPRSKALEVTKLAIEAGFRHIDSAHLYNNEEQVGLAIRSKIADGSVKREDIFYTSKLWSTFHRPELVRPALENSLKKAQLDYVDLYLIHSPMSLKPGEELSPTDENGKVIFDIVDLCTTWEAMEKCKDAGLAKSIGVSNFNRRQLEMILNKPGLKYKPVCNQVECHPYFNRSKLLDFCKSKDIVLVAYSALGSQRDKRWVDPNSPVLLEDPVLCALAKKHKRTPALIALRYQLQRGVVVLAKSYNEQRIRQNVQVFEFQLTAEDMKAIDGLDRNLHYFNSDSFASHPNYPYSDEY
Assay: AKR1C3 enzyme inhibition assay (fluorescence; NADPH-dependent reduction of coumberone to coumberol)
Type: biochemical
Conditions: not given
Description: The AKR1C3-inhibitory action of the substances of this invention was measured in the AKR1C3 assay described in the paragraphs which follow. Essentially, the enzyme activity is measured by quantifying the coumberol formed from coumberone ([…]., and […]. AM. CHEM. SOC. 130, 14123-14128 (2008) […]., Bauman, D.R., Penning, T.M., and […]., Proc. Natl. Acad. Sci. USA 103, 13304 - 13309 (2006)). In this assay, the increase in the highly fluorescent coumberol can be determined by NADPH (nicotinamide adenine dinucleotide phosphate)-dependent reduction of the nonfluorescent coumberone by AKR1C3. […] NM_003739). This was expressed as the GST (glutathione S-transferase) fusion protein in E. coli and purified by means of glutathione-Sepharose affinity chromatography. The GST was removed by thrombin digestion with subsequent size exclusion chromatography (Dufort, I., Rheault, P., Huang, XF., Soucy, P., and Luu-The, V., Endocrinology 140, 568-574 (1999)). […] The concentration of the AKR1C3 was matched to the respective activity of the enzyme preparation and set such that the assay worked within the linear range. Typical concentrations were in the region of 1 nM. The reaction was stopped by adding 5 μl of a stop solution consisting of the inhibitor EM-1404 [F. Labrie et al. US Patent 6,541,463, 2003] (2 μM → final concentration in assay volume […] is 1 μM). Subsequently, the fluorescence of coumberol was measured at 520 nm (excitation at 380 nm) with a suitable measuring instrument (Pherastar from BMG Labtechnologies). […] As described, the pharmacological substances claimed were tested for their inhibitory effect on the AKR1C3 enzyme (see Table 3). […] Table 3: Inhibition of AKR1C3 by the inventive compounds (for some of the compounds, the values for two experimental determinations are reported)

Structure (SMILES) | IC50
CC(C)(CNC(=O)c1ccc2c(c1)CC[C@@H]1[C@@H]2CC[C@]2(C)[C@@H](c3cncc(F)c3)CC[C@@H]12)C(=O)O [Example 5, 3-([[(17beta)-17-(5-fluoropyridin-3-yl)estra-1,3,5(10)-trien-3-yl]carbonyl}amino)-2,2-dimethylpropanoic acid] | 13.8 nM and 13.1 nM

Same assay, conditions: 10 µM NADPH, 0.3 µM coumberone, 15 min preincubation, 90 min at 22°C, pH 7; 4-parameter fit; for some compounds two experimental determinations are given; read-out: AKR1C3 enzyme inhibition IC50

Structure (SMILES) | IC50
CN(CCC(=O)O)C(=O)c1ccc2c(c1)CC[C@@H]1[C@@H]2CC[C@]2(C)[C@@H](c3cncc(F)c3)CC[C@@H]12 [Example 1, N-{[(17beta)-17-(5-fluoropyridin-3-yl)estra-1,3,5(10)-trien-3-yl]carbonyl}-N-methyl-beta-alanine] | 19.2 nM and 23.7 nM
C[C@]12CC[C@@H]3c4ccc(C(=O)NCC(=O)O)cc4CC[C@H]3[C@@H]1CC[C@@H]2c1cncc(F)c1 [Example 2, N-[[(17beta)-17-(5-fluoropyridin-3-yl)estra-1,3,5(10)-trien-3-yl]carbonyl}glycine] | 26.4 nM and 28.9 nM
C[C@]12CC[C@@H]3c4ccc(C(=O)NCCC(=O)O)cc4CC[C@H]3[C@@H]1CC[C@@H]2c1cncc(F)c1 [Example 3, N-{[(17beta)-17-(5-fluoropyridin-3-yl)estra-1,3,5(10)-trien-3-yl]carbonyl}-beta-alanine] | 5.47 nM and 9.35 nM
COc1cncc([C@H]2CC[C@H]3[C@@H]4CCc5cc(C(=O)N(C)CCC(=O)O)ccc5[C@H]4CC[C@]23C)c1 [Example 6, N-{[(17beta)-17-(5-methoxypyridin-3-yl)estra-1,3,5(10)-trien-3-yl]carbonyl}-N-methyl-beta-alanine] | 67.6 nM and 82.1 nM
CN(CCC(=O)O)C(=O)c1ccc2c(c1)CC[C@@H]1[C@@H]2CC[C@]2(C)[C@@H](c3cncc(C(F)(F)F)c3)CC[C@@H]12 [Example 7, N-methyl-N-{[(17beta)-17-[5-(trifluoromethyl)pyridin-3-yl]estra-1,3,5(10)-trien-3-yl]carbonyl}-beta-alanine] | 35 nM and 44.1 nM
CN(CC(=O)O)C(=O)c1ccc2c(c1)CC[C@@H]1[C@@H]2CC[C@]2(C)[C@@H](c3cncc(C(F)(F)F)c3)CC[C@@H]12 [Example 8, N-methyl-N-[[(17beta)-17-[5-(trifluoromethyl)pyridin-3-yl]estra-1,3,5(10)-trien-3-yl]carbonyl}glycine] | 48.5 nM and 76.2 nM
C[C@]12CC[C@@H]3c4ccc(C(=O)NCCC(=O)O)cc4CC[C@H]3[C@@H]1CC[C@@H]2c1cncc(C(F)(F)F)c1 [Example 9, N-{[(17beta)-17-[5-(trifluoromethyl)pyridin-3-yl]estra-1,3,5(10)-trien-3-yl]carbonyl}-beta-alanine] | 16.9 nM and 26 nM
CN(CCC(=O)O)C(=O)c1ccc2c(c1)CC[C@@H]1[C@@H]2CC[C@]2(C)[C@@H](c3cncnc3)CC[C@@H]12 [Example 10, N-methyl-N-{[(17beta)-17-(pyrimidin-5-yl)estra-1,3,5(10)-trien-3-yl]carbonyl}-beta-alanine] | 271 nM and 282 nM
CN(CCC(=O)O)C(=O)c1ccc2c(c1)CC[C@H]1[C@@H]3[C@H](O)C[C@H](c4cncc(F)c4)[C@@]3(C)CC[C@H]21 [Example 11, N-{[(15beta,17beta)-17-(5-fluoropyridin-3-yl)-15-hydroxyestra-1,3,5(10)-trien-3-yl]carbonyl}-N-methyl-beta-alanine] | 22.4 nM
CN(CCC(=O)O)C(=O)c1ccc2c(c1)CC[C@H]1[C@@H]3[C@@H](O)C[C@H](c4cncc(F)c4)[C@@]3(C)CC[C@H]21 [Example 12, N-{[(15alpha,17beta)-17-(5-fluoropyridin-3-yl)-15-hydroxyestra-1,3,5(10)-trien-3-yl]carbonyl}-N-methyl-beta-alanine] | 188 nM

Same assay, conditions: read-out: AKR1C3 enzyme inhibition IC50; 10 µM NADPH, 0.3 µM coumberone, 15 min preincubation, 90 min at 22°C, pH 7; 4-parameter fit; for some compounds two experimental determinations are given

Structure (SMILES) | IC50
C[C@]12CC[C@@H]3c4ccc(C(=O)NCCCC(=O)O)cc4CC[C@H]3[C@@H]1CC[C@@H]2c1cncc(F)c1 [Example 4, 4-({[(17beta)-17-(5-fluoropyridin-3-yl)estra-1,3,5(10)-trien-3-yl]carbonyl}amino)butanoic acid] | 7.79 nM and 6.76 nM

— patent EP3421483A1, “NOVEL STEROIDAL 17-BETA HETEROARYL COMPOUNDS AS INHIBITORS OF AKR1C3” (Bayer Pharma Aktiengesellschaft, priority 2017, dated 2019)
